Measurements reported in US10301355B2, “Method of using pharmaceutical compositions comprising selective peptide-based agonists of melanocortin 1 receptor” (University of Cincinnati, priority 2012, dated 2019).

Legend:
[1] = tested on: human melanocytes; experiment: Potency in human melanocytes; format: cell-based
[2] = tested on: mouse MCRs; conditions: cited from earlier work

In the case of trans-4-HOC6H4CH═CHCO-His-D-Phe-Arg-NH2, the “potency in human melanocytes” value [1] is listed as “less potent in human melanocytes” and the “MC1R selectivity and potency compared to tripeptide LK-394” value [2] is listed as “moderately increased MC1R selectivity and potency”.
